In patent US20240279600A1, “COMPOSITIONS AND METHODS FOR PROMOTING IN VITRO MATURATION OF CELLS” (MEMORIAL SLOAN-KETTERING CANCER CENTER, priority 2021, published 2024):
“Also recorded” adds a separate entry of the source.

Legend:
Assay type in all cases: cell-based, human
[1] = system: hPSC-derived cortical neurons; assay: High-content maturity assay / chemical screen in hPSC-derived cortical neurons; details: for dose-response validation, mean of 4 maturity parameters normalized to DMSO (mean maturation score): 30 nM-10,000 nM, nuclear size and roundness, neurite length, KCl-induced FOS/EGR1+ cells; for number of cells (cell viability / neuron survival): with respect to DMSO, treatment days 7-14, day 21
Text: The phenotypic complexity of neurons makes single-readout assays unsuitable to fully capture maturation stages. Therefore, a multi-phenotype approach (via high-content screening, HCS) (Boutros M., Heigwer F. & Laufer C. Cell vol. 163 1314-1325 (2015)) was used to design an assay that simultaneously monitors distinct features of neuronal maturation (FIG. 1A). Dendritic outgrowth is a widely used parameter of neuron maturity (Wu, G. Y. et al., J. Neurosci. 19, 4472-4483 (1999)) and can be monitored through automated tracing of microtubule-associated protein 2 (MAP2) immunostaining (FIGS. 1B and 1C). Changes in nuclear size and morphology are also characteristic of neuron development and maturation (Ito K. & Takizawa T., Frontiers in Genetics vol. 9 (2018)) and can be tracked via DAPI counterstaining (FIGS. 1B and 1C). As an indirect measurement of neuronal function and excitability, the nuclear expression of immediate early gene (IEG) products FOS and EGR1 were quantified following 2 hours of potassium chloride (KCl) stimulation (FIGS. 1B and 1D). IEGs are defined by their rapid induction in the absence of de-novo protein synthesis by stimuli that include sustained membrane depolarization in neurons (Sheng M. & Greenberg M. E., Neuron vol. 4 477-485 (1990)). In contrast to more traditional measures of neuronal activity such as calcium imaging and electrophysiology, IEG immunoreactivity is readily scalable as a readout for thousands of treatment conditions. However, IEGs can be triggered by stimuli other than neuronal activity including growth factor signaling (Greenberg M. E. & Ziff E. B., Nature 311, 433-438 (1984)) and cellular stress responses (Murai J. et al., Cell Rep. 30, 4137-4151.e6 (2020)). Therefore, to avoid direct activation of IEGs, transient compound treatment (day 7-14) was used and all measurements were performed after rinsing of compounds followed by culture in compound-free medium for an additional 7 days (day 14-21) prior to analysis (FIG. 1A). Furthermore, IEGs under both basal and KCl-stimulated conditions were recorded to specifically determine the depolarization-induced signal by subtracting baseline from KCl-induced responses. Measuring maturation readouts only after compound withdrawal enabled the identification of compounds that trigger a long-lasting “memory” of a maturation stimulus even after compound removal.
The present maturity assay was then applied to screen a library of 2688 bioactive compounds in hPSC-derived cortical neurons (FIG. 6A). The library was applied at 5 μM and standard scores (z-scores) of duplicate screen runs were averaged for analysis. Viability was determined by quantifying intact nuclei, and 325 toxic compounds with a z-score below −2 were excluded from further analysis (FIG. 6B). For HCS hit selection, principal component analysis (PCA) was applied to 6 maturity z-scores to identify patterns of distribution among compounds, avoiding single threshold hit discrimination (Singh S. et al., Journal of Biomolecular Screening vol. 19 640-650 (2014)) (FIG. 1E, left panel). The 6 parameters were: nuclear size and roundness, total neurite length and branching (number of segments per cell), and fractions of KCl-induced FOS+ and EGR1+ cells. Three phenotypic clusters of compounds were identified by PCA: maturation enhancers (hits); maturation suppressors, consisting mostly of inhibitors of the PI3K/AKT/mTOR axis; and inducers of non-neuronal contaminant proliferation, which were highly enriched in TGF-β signaling inhibitors as well as inhibitors of rho-associated protein kinase (ROCK) and other signaling pathways (FIG. 1E, right panel).
A bioactive compound library containing 2688 compounds was used for screening at a concentration of 5 μM (Selleck Bioactive Library, Selleck Chemicals). 192 DMSO wells contained within the library were used as negative controls. […]

[2] = system: hPSC-derived cortical neurons from treated NPC; assay: Western blot for maturation markers after transient inhibition of chromatin regulators in NPC; details: NPC treated d12 to d20, neurons analysed d35, versus DMSO
[3] = system: hPSC-derived cortical neurons from treated NPC; assay: Ca2+ imaging (GCaMP6m) after transient inhibition of chromatin regulators in NPC; details: NPC treated d12 to d20, imaging d40, versus DMSO

Structure (SMILES)	dose-response validation, mean of 4 maturity parameters normalized to DMSO (mean maturation score) [1]	number of cells (cell viability / neuron survival) [1]	expression of the maturation markers Nefh and Stx1a [2]	synchronicity of the neuronal network (synchronous firing rate) [3]	amplitude of individual Ca2+ spikes [3]	frequency of individual Ca2+ spikes [3]
COC(=O)C1=C(C)NC(C)=C([N+](=O)[O-])C1c1ccccc1C(F)(F)F (stereo not drawn) [Bay K 8644, methyl 2,6-dimethyl-5-nitro-4-[2-(trifluoromethyl)phenyl]-1,4-dihydropyridine-3-carboxylate]	confirmed hits	did not significantly affect neuron survival	–	–	–	–
CC(C)N(CCCNC(=O)Nc1ccc(C(C)(C)C)cc1)C[C@H]1O[C@@H](n2ccc3c(N)ncnc32)[C@H](O)[C@@H]1O [EPZ004777, 1-[3-[[(2R,3S,4R,5R)-5-(4-aminopyrrolo[2,3-d]pyrimidin-7-yl)-3,4-dihydroxyoxolan-2-yl]methyl-propan-2-ylamino]propyl]-3-(4-tert-butylphenyl)urea]	–	–	robust increased expression	modest functional enhancement with an increased synchronous firing rate	–	–
CC(C)N(C[C@H]1O[C@@H](n2cnc3c(N)ncnc32)[C@H](O)[C@@H]1O)[C@H]1C[C@@H](CCc2nc3cc(C(C)(C)C)ccc3[nH]2)C1 [EPZ-5676, (2R,3R,4S,5R)-2-(6-aminopurin-9-yl)-5-[[[3-[2-(6-tert-butyl-1H-benzimidazol-2-yl)ethyl]cyclobutyl]-propan-2-ylamino]methyl]oxolane-3,4-dioland]	confirmed hits	did not significantly affect neuron survival	–	–	–	–
CCCc1cc(C)[nH]c(=O)c1CNC(=O)c1cc(-c2ccnc(N3CCN(C)CC3)c2)cc2c1cnn2C(C)C [GSK343, N-[(6-methyl-2-oxo-4-propyl-1H-pyridin-3-yl)methyl]-6-[2-(4-methylpiperazin-1-yl)pyridin-4-yl]-1-propan-2-ylindazole-4-carboxamide]	–	–	robust increased expression	marked and highly significant increase	marked and highly significant increase	marked and highly significant increase
O=C(O)c1ccc(CN2CCC(CN[C@@H]3C[C@H]3c3ccccc3)CC2)cc1 [GSK2879552, 4-[[4-[[[(1R,2S)-2-phenylcyclopropyl]amino]methyl]piperidin-1-yl]methyl]benzoic acid]	stronger combined effect than OG-L002; also recorded: confirmed hits	did not significantly affect neuron survival	–	–	–	–
N[C@H]1C[C@@H]1c1ccc(-c2cccc(O)c2)cc1 [OG-L002]	confirmed hits	–	–	–	–	–
COc1cc2c(NC3CCN(C(C)C)CC3)nc(C3CCCCC3)nc2cc1OCCCN1CCCC1 [UNC0638, 2-cyclohexyl-6-methoxy-N-(1-propan-2-ylpiperidin-4-yl)-7-(3-pyrrolidin-1-ylpropoxy)quinazolin-4-amine]	–	–	robust increased expression	significant changes	–	–
